Data from ChEMBL document CHEMBL3286387, “α-Tetralone derivatives as inhibitors of monoamine oxidase” (Bioorg Med Chem Lett, 2014).

What was measured:
[1] = target: T1, Amine oxidase [flavin-containing] A (Homo sapiens, UniProt P21397); assay: Inhibition of recombinant human MAO-A using kynuramine as substrate assessed as 4-hydroxyquinoline production after 30 mins by fluorescence spectrophotometry analysis
T1 sequence (P21397 whole entry): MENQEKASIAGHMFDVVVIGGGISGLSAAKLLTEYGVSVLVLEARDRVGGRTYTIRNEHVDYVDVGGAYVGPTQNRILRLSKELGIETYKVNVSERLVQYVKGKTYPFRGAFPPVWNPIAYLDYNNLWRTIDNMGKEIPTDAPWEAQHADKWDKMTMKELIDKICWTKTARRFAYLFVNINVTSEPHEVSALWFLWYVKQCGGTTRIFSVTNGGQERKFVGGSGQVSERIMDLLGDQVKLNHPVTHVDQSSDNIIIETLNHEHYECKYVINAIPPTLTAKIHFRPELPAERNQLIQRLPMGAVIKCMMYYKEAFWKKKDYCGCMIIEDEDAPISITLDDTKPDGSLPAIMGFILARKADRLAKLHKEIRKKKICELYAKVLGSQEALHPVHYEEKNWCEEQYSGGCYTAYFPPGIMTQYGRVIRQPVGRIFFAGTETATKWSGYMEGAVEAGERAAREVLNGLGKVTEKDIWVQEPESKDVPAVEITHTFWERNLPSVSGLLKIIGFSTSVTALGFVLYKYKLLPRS

[2] = organism: Homo sapiens; assay: Selectivity index, ratio of IC50 for recombinant human MAO-A to IC50 for recombinant human MAO-B
[3] = target: T2, Amine oxidase [flavin-containing] B (Homo sapiens, UniProt P27338); assay: Competitive inhibition of recombinant human MAO-B using kynuramine as substrate by Lineweaver-Burk plot analysis
T2 sequence (P27338 whole entry): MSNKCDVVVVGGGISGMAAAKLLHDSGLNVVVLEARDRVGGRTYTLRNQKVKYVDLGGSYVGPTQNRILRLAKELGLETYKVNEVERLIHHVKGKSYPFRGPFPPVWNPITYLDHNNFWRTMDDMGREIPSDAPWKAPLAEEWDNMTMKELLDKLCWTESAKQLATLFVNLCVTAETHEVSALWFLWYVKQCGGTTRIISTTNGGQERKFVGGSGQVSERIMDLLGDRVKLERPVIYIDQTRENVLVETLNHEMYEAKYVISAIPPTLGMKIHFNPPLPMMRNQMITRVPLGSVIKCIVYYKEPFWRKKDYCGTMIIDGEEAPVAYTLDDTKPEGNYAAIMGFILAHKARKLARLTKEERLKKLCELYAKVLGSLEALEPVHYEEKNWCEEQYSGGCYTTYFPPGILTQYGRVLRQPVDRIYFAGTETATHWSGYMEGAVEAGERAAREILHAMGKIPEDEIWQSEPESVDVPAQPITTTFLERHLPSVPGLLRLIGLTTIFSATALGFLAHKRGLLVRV

[4] = target: T2, Amine oxidase [flavin-containing] B; assay: Inhibition of recombinant human MAO-B using kynuramine as substrate assessed as 4-hydroxyquinoline production after 30 mins by fluorescence spectrophotometry analysis
[5] = target: T2, Amine oxidase [flavin-containing] B; assay: Reversible inhibition of recombinant human MAO-B using kynuramine as substrate assessed as enzyme residual activity at 4 times IC50 incubated for 15 mins measured after 24 hrs by fluorescence spectrophotometry analysis relative to control
[6] = target: T1, Amine oxidase [flavin-containing] A; assay: Reversible inhibition of recombinant human MAO-A using kynuramine as substrate assessed as enzyme residual activity at 4 times IC50 incubated for 15 mins measured after 24 hrs of dialysis by fluorescence spectrophotometry analysis relative to control
[7] = target: T1, Amine oxidase [flavin-containing] A; assay: Competitive inhibition of recombinant human MAO-A using kynuramine as substrate by Lineweaver-Burk plot analysis
[8] = target: T1, Amine oxidase [flavin-containing] A; assay: Reversible inhibition of recombinant human MAO-A using kynuramine as substrate assessed as enzyme residual activity at 4 times IC50 incubated for 15 mins measured after 24 hrs by fluorescence spectrophotometry analysis relative to control

Molecule `O=C1CCCc2cc(OCc3cccc(I)c3)ccc21` has an IC50 [1] of 1290 nM, a Ratio IC50 [2] of 287 and a Ki [3] of 7.1 nM. For the same molecule, the IC50 [4] was 4.5 nM and the Activity [5] was 23%.

With `O=C1CCCc2cc(OCc3ccc(I)cc3)ccc21` the IC50 [1] was 2250 nM, the Ratio IC50 [2] was 346 and the IC50 [4] was 6.5 nM.

For `O=C1CCCc2cc(OCc3ccccc3)ccc21`, the IC50 [1] was 792 nM, the Ratio IC50 [2] was 13 and the IC50 [4] was 63 nM.

Work on `O=C1CCCc2cc(OCCc3ccccc3)ccc21` yielded an IC50 [1] of 1320 nM, a Ratio IC50 [2] of 40 and an IC50 [4] of 33 nM.

`N#Cc1ccc(COc2ccc3c(c2)CCCC3=O)cc1` showed an IC50 [1] of 656 nM, a Ratio IC50 [2] of 60 and an IC50 [4] of 11 nM.

With `O=C1CCCc2cc(OCc3ccc(C(F)(F)F)cc3)ccc21` the IC50 [1] was 547 nM, the Ratio IC50 [2] was 91 and the IC50 [4] was 6 nM.

For `N#Cc1cccc(COc2ccc3c(c2)CCCC3=O)c1`, the IC50 [1] was 24 nM, the Ratio IC50 [2] was 0.3 and the Activity [6] was 108%. It also gave a Ki [7] of 25 nM, an IC50 [4] of 78 nM and an Activity [8] of 44%.

`O=C1CCCc2cc(OCc3ccc(Br)cc3)ccc21` gave an IC50 [1] of 311 nM, a Ratio IC50 [2] of 35 and an IC50 [4] of 9 nM.

`O=C1CCCc2cc(OCCCc3ccccc3)ccc21` gave an IC50 [1] of 1160 nM, a Ratio IC50 [2] of 36 and an IC50 [4] of 32 nM.

With `O=C1CCCc2cc(OCc3cccc(Br)c3)ccc21` the IC50 [1] was 212 nM, the Ratio IC50 [2] was 24 and the IC50 [4] was 9 nM.

Molecule `O=C1CCCc2cc(OCc3ccc(F)cc3)ccc21` has an IC50 [1] of 266 nM.

Molecule `O=C1CCCc2cc(OCc3cccc(Cl)c3)ccc21` has an IC50 [1] of 207 nM, a Ratio IC50 [2] of 14 and an IC50 [4] of 15 nM.

Molecule `Cc1ccc(COc2ccc3c(c2)CCCC3=O)cc1` has an IC50 [1] of 2090 nM, a Ratio IC50 [2] of 190 and an IC50 [4] of 11 nM.

`O=C1CCCc2ccccc21` showed an IC50 [1] of 14800 nM, a Ratio IC50 [2] of 0.8 and an IC50 [4] of 18600 nM.

Work on `O=C1CCCc2cc(O)ccc21` yielded an IC50 [1] of 43800 nM, a Ratio IC50 [2] of 0.7 and an IC50 [4] of 66400 nM.

Molecule `O=C1CCCc2cc(OCc3cccc(F)c3)ccc21` has an IC50 [1] of 392 nM, a Ratio IC50 [2] of 23 and an IC50 [4] of 17 nM.

`O=C1CCCc2cc(OCc3ccc(Cl)cc3)ccc21` gave an IC50 [1] of 238 nM.

For `C#CCN(C)Cc1ccccc1` [PARGYLINE], the Activity [6] was 1.6%.
